In patent US20210253747A1, “COMPOSITIONS OF SOLUBLE BETA GLUCAN AND RELATED METHODS” (KEMIN INDUSTRIES, INC., priority 2020, published 2021):

Design: Initial absorbance (@600 nm): dose or concentration left out as unconfirmed
Excerpt: The final criteria for the claimed composition is the ability for the dry product to redissolve into a soluble/colloidal water-based solution at an example concentration of 10 g/L. Before redissolving in water, the dry product is ground into a powder using any mechanical grinding/milling/pulverizing methods, in this case a mortar and pestle.

- Absorbance at 60 min/Initial absorbance: 0.535
- Initial absorbance (@600 nm): 1.950
- Solubility as defined by the absorbance method (soluble if the decrease is not more than 25% after 60 minutes): NOT SOLUBLE
Substance: paramylon [Sample A]
